The source of these data is patent publication US7919625B2, “4-anilino-3-quinolinecarbonitriles for the treatment of chronic myelogenous leukemia (CML)” (Wyeth LLC, priority 2003, dated 2011).

The subject of series [1] is K562 xenografts. The experiment in a line: K562 xenografts in nude mice, tumor-free survival. It is filed as in vivo. The text has this:
Nude mice with K562 xenografts were examined on days 11, 22, 36, and 43. Data is presented as a ratio of animals lacking detectable tumors relative to the number of animals per group. K562 tumors imbedded in Matrigel were staged in nude mice until tumors reached 200-300 mm^3.

Series [2] has as its system K562 cells. The experiment in a line: Inhibition of CML cell proliferation, K562. The following applies: Homo sapiens. It is filed as cell-based. The procedure: (§1) • A. Inhibition of v-Abl-dependent proliferation. Rat 2 cells infected with Abl-murine leukemia virus were grown and treated as described for the Src cell assay. All measurements were identical except for the cell type that Cell-Titer Glo (Promega) was used to monitor relative cell number. In this case, the reagent was used as recommended by the manufacturer and luminescence was measured on a Wallac Victor plate reader. • B. Inhibition of CML cell proliferation. KU812 and K562 cells were grown in RPMI1640 medium supplemented with 10% fetal calf serum and glutamine with 50 μg/ml gentamicin. Cells were plated at 1000-2000 cells per well on Day 0. On Day 1, compound was added such that the final DMSO concentration was no greater than 0.1%. On Day 4, Cell-Titer Glo was added according to manufacturer specifications and luminescence was determined on a Wallac Victor plate reader.

The test system of series [3] is Rat 2 cells infected with Abl-murine leukemia virus. The series is described as follows: Inhibition of v-Abl-dependent proliferation. Format: cell-based. The following applies: Rat2. The procedure: Ultra-low cluster plates (Corning Costar, Acton, Mass.) are seeded with 10,000 cells per well on day 1. Alternatively, Ultra-low cluster plates (Costar 3474) treated with Sigmacote (Sigma, St. Louis, Mo.), rinsed with 70% ethanol, after drying in the hood, are seeded with 5000 cells.
Alternatively relative cell numbers were determined by the CellTiter-Glo™ (Promega) method. All procedures were identical except that cell number was reduced to 1000 cells/well and CellTiter-Glo reagent was added instead of MTS reagent, with luminescence as the readout.
as §1

The subject of series [4] is KU812 cells. The experiment in a line: Inhibition of CML cell proliferation, KU812. It is filed as cell-based. The following applies: Homo sapiens. On the procedure:
as §1

Series [5] concerns the target T1, Src (Homo sapiens, UniProt P12931). The experiment in a line: Src kinase assay, ELISA format. For orientation: ELISA stands for enzyme-linked immunosorbent assay.
For series [6], the target named is T2, c-Abl (Homo sapiens, UniProt P00519).
T2 construct: purchased Panvera P3049
The experiment in a line: Homogeneous solution-based Abl kinase assay (Lance). Format: biochemical. The following applies: read-out: c-Abl Enzyme IC50.

In series [7] the target is T1, Src. The series is described as follows: Src kinase assay, homogeneous solution-based (Lance format). Also on record: purchased Upstate Biotechnologies, Lake Placid, N.Y. The following applies: read-out: Src enzyme IC50. It is filed as biochemical.
Setting [8] is: read-out: Src enzyme IC50, ELISA format.

T1 sequence (P12931 whole entry): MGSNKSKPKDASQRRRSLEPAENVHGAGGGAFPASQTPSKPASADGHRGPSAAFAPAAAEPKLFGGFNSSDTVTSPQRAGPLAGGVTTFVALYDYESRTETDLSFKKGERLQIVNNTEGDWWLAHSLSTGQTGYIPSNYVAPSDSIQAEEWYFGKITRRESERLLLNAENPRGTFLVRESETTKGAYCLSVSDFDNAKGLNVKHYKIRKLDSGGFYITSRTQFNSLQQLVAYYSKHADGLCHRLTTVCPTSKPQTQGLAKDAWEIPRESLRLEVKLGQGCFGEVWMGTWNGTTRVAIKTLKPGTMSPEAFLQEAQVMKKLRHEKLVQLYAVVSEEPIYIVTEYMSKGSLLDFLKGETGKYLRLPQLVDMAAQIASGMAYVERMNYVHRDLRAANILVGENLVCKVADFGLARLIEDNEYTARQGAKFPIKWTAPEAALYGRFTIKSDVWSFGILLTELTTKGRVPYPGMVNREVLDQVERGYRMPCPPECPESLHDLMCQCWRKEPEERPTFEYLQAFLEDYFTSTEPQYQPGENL
T2 sequence (P00519 whole entry): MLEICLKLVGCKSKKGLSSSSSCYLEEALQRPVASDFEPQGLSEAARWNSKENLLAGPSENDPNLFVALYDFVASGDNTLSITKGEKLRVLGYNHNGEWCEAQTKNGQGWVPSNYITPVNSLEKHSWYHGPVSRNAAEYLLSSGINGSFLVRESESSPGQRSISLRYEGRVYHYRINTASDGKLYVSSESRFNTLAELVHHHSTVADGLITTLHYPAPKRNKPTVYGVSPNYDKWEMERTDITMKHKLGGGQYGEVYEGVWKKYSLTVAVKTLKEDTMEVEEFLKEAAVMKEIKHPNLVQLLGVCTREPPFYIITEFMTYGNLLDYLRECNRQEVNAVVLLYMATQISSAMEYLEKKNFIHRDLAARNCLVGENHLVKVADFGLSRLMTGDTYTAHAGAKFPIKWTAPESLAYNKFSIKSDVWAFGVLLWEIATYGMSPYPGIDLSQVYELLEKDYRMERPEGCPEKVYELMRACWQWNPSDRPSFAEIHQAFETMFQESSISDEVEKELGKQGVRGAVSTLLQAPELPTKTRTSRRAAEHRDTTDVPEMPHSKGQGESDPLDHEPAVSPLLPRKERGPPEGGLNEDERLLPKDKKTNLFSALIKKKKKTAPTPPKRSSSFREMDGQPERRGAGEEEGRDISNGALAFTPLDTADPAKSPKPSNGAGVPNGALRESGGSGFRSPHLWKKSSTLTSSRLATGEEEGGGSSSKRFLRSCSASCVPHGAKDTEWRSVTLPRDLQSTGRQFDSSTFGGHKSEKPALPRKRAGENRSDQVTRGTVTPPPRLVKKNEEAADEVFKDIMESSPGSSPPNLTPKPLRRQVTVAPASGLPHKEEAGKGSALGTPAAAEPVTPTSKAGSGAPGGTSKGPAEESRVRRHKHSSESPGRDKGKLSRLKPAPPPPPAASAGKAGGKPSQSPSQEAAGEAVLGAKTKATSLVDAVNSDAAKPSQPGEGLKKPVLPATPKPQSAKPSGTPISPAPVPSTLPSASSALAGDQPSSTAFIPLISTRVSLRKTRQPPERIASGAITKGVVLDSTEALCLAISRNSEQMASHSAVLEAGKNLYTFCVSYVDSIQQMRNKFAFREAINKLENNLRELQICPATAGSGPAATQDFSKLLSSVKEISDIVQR

A word on the IC50: it is the midpoint of a concentration-inhibition curve. `COc1cc(Nc2c(C#N)cnc3cc(OCCCN4CCN(C)CC4)c(OC)cc23)c(Cl)cc1Cl` [Example 1, 4-[(2,4-Dichloro-5-methoxyphenyl)amino]-6-methoxy-7-[3-(4-methyl-1-piperazinyl)propoxy]-3-quinolinecarbonitrile]: the “Tumor-free survival (animals lacking detectable tumors / animals per group)” value in series [1] (50 mg/kg p.o. once a day for 5 days, day 11) is reported as 6/8; in series [1] (50 mg/kg p.o. once a day for 5 days, day 22) it was 5/8; in series [1] (50 mg/kg p.o. once a day for 5 days, day 36) it was 4/8; in series [1] (50 mg/kg p.o. once a day for 5 days, day 43), 4/8; in series [1] (75 mg/kg p.o. once a day for 5 days, day 11) it was 7/8; in series [1] (75 mg/kg p.o. once a day for 5 days, day 22), 6/8. The “Tumor-free survival (animals lacking detectable tumors / animals per group)” value was 6/8 in series [1] (75 mg/kg p.o. once a day for 5 days, day 36); 6/8 in series [1] (75 mg/kg p.o. once a day for 5 days, day 43); 8/8 in series [1] (100 mg/kg p.o. once a day for 5 days, day 11); 7/8 in series [1] (100 mg/kg p.o. once a day for 5 days, day 22); 7/8 in series [1] (100 mg/kg p.o. once a day for 5 days, day 36); 7/8 in series [1] (100 mg/kg p.o. once a day for 5 days, day 43). Also, the “Tumor-free survival (animals lacking detectable tumors / animals per group)” value is 8/8 in series [1] (150 mg/kg p.o. once a day for 5 days, day 11); 8/8 in series [1] (150 mg/kg p.o. once a day for 5 days, day 22); 8/8 in series [1] (150 mg/kg p.o. once a day for 5 days, day 36); 8/8 in series [1] (150 mg/kg p.o. once a day for 5 days, day 43). Besides, the IC50 in series [2] is 20 nM; in series [3], 76 nM; in series [4], 5 nM.
On to `CCN1CCN(CCCOc2cc3ncc(C#N)c(Nc4cc(OC)c(Cl)cc4Cl)c3cc2OC)CC1` [Example 2, 4-[(2,4-Dichloro-5-methoxyphenyl)amino]-7-[3-(4-ethyl-1-piperazinyl)propoxy]-6-methoxy-3-quinolinecarbonitrile], for which, in series [5] (setting [8]), the half-inhibitory concentration (IC50) was 0.77 nM.
For orientation: melting point means the temperature, or range, at which the solid turns liquid. With `COc1cc(Nc2c(C#N)cnc3cc(OCCN4CCN(C)CC4)c(OC)cc23)c(Cl)cc1Cl` [Example 3, 4-[(2,4-Dichloro-5-methoxyphenyl)amino]-6-methoxy-7-[2-(4-methyl-1-piperazinyl)ethoxy]-3-quinolinecarbonitrile], the melting point fell in the range of 165 to 167 °C. This molecule yielded a concentration for half-maximal inhibition (IC50) in series [2] of 48 nM. In series [3], this molecule came in with an IC50 of 440 nM.
`CCN1CCN(CCOc2cc3ncc(C#N)c(Nc4cc(OC)c(Cl)cc4Cl)c3cc2OC)CC1` [Example 4, 4-[(2,4-Dichloro-5-methoxyphenyl)amino]-7-[2-(4-ethyl-1-piperazinyl)ethoxy]-6-methoxy-3-quinolinecarbonitrile] returned a melting point of 101 to 105 °C.
`COc1cc(Nc2c(C#N)cnc3cc(OCC4CCN(C)CC4)c(OC)cc23)c(Cl)cc1Cl` [Example 5, 4-[(2,4-Dichloro-5-methoxyphenyl)amino]-6-methoxy-7-[(1-methylpiperidin-4-yl)methoxy]-3-quinolinecarbonitrile]: the IC50 worked out at 2.9 nM in series [6], 39 nM in series [2], 617 nM in series [3] and 13.4 nM in series [4].
On to `COc1cc(Nc2c(C#N)cnc3cc(OCCC4CCN(C)CC4)c(OC)cc23)c(Cl)cc1Cl` [Example 6, 4-[(2,4-Dichloro-5-methoxyphenyl)amino]-6-methoxy-7-[2-(1-methylpiperidin-4-yl)ethoxy]-3-quinolinecarbonitrile], for which the half-maximal inhibitory concentration (IC50) in series [6] was 2.9 nM; in series [2] it was 41 nM; in series [3], 458 nM; in series [4] it was 14 nM.
As to `COc1cc(Nc2c(C#N)cnc3cc(OCCCC4CCN(C)CC4)c(OC)cc23)c(Cl)cc1Cl` [Example 7, 4-[(2,4-Dichloro-5-methoxyphenyl)amino]-6-methoxy-7-[3-(1-methylpiperidin-4-yl)propoxy]quinoline-3-carbonitrile], the IC50 in series [2] amounted to 18 nM; in series [3] it was 185 nM; in series [4] it was 5.8 nM.
Turning to `CCN1CCC(COc2cc3ncc(C#N)c(Nc4cc(OC)c(Cl)cc4Cl)c3cc2OC)CC1` [Example 8, 4-[(2,4-Dichloro-5-methoxyphenyl)amino]-7-[(1-ethylpiperidin-4-yl)methoxy]-6-methoxyquinoline-3-carbonitrile], the melting point is 192 to 195 °C.
`CCOc1cc2c(Nc3cc(OC)c(Cl)cc3Cl)c(C#N)cnc2cc1OCCCN1CCN(C)CC1` [Example 9, 4-[(2,4-Dichloro-5-methoxyphenyl)amino]-6-ethoxy-7-[3-(4-methylpiperazin-1-yl)propoxy]quinoline-3-carbonitrile] registered a melting point of 137 to 138 °C. Also, the concentration for half-maximal inhibition (IC50) in series [5] is 1.2 nM.
`CCOc1cc2c(Nc3cc(OC)c(Cl)cc3Cl)c(C#N)cnc2cc1OCC1CCN(C)CC1` [Example 10, 4-[(2,4-Dichloro-5-methoxyphenyl)amino]-6-ethoxy-7-[(1-methylpiperidin-4-yl)methoxy]quinoline-3-carbonitrile] showed a melting point of 182 to 186 °C.
`CCOc1cc2c(Nc3cc(OC)c(Cl)cc3Cl)c(C#N)cnc2cc1OCCCN1CCN(CC)CC1` [Example 11, 4-[(2,4-Dichloro-5-methoxyphenyl)amino]-6-ethoxy-7-[3-(4-ethylpiperazin-1-yl)propoxy]quinoline-3-carbonitrile]: the melting point lay in the range of 127 to 130 °C.
For `CCOc1cc2c(Nc3cc(OC)c(Cl)cc3Cl)c(C#N)cnc2cc1OCCCC1CCN(C)CC1` [Example 12, 4-[(2,4-Dichloro-5-methoxyphenyl)amino]-6-ethoxy-7-[3-(1-methylpiperidin-4-yl)propoxy]quinoline-3-carbonitrile], the melting point fell in the range of 148 to 151 °C.
The molecule `CCOc1cc2c(Nc3cc(OC)c(Cl)cc3Cl)c(C#N)cnc2cc1OCCN1CCN(C)CC1` [Example 13, 4-[(2,4-Dichloro-5-methoxyphenyl)amino]-6-ethoxy-7-[2-(4-methyl-1-piperazinyl)ethoxy]quinoline-3-carbonitrile] had a melting point of 141 to 143 °C.
Molecule `CCOc1cc2c(Nc3cc(OC)c(Cl)cc3Cl)c(C#N)cnc2cc1OCCC1CCN(C)CC1` [Example 14, 4-[(2,4-Dichloro-5-methoxyphenyl)amino]-6-ethoxy-7-[2-(1-methylpiperidin-4-yl)ethoxy]quinoline-3-carbonitrile] returned a melting point of 174 to 176 °C.
For `CCCN1CCN(CCCOc2cc3ncc(C#N)c(Nc4cc(OC)c(Cl)cc4Cl)c3cc2OC)CC1` [Example 15, 4-[(2,4-Dichloro-5-methoxyphenyl)amino]-6-methoxy-7-[3-(4-propyl-1-piperazinyl)propoxy]-3-quinolinecarbonitrile], the 50% inhibitory concentration (IC50) in series [5] (setting [8]) was found to be 1.1 nM.
On to `CCOc1cc(Nc2c(C#N)cnc3cc(OCC4CCN(C)CC4)c(OC)cc23)c(Cl)cc1Cl` [Example 22, 4-[(2,4-dichloro-5-ethoxyphenyl)amino]-6-methoxy-7-[(1-methylpiperidin-4-yl)methoxy]quinoline-3-carbonitrile], for which the IC50 in series [7] worked out at 230 nM.
